Measurements as given in EP1626095A1, “Fluorescence-based kinetic determination of transglutaminase activity” (N-Zyme BioTec GmbH, priority 2004, dated 2006).
Where a SMILES comes first, the peptide text is derived from it. [ ]: non-standard residue; d: D form. The star is where a group is joined. X1 = O=[N+]([O-])c1ccc(NCCCCCN*)c([N+](=O)[O-])c1; 2Abz = Nc1ccccc1C(=O)O

How the values were obtained:
Faktor XIII = target: T1, Faktor XIII (Homo sapiens, UniProt P00488); test: Selectivity test: fluorescence-based kinetic transglutaminase activity measurement (release of quencher from substrate peptide), Ansatz 1; assay type: biochemical; conditions: substrate peptide 50 µM; Faktor XIII: 100 µl Citratplasma; 6 % DMSO; Exc.: 310 nm Em.: 427 nm, 20 min
T1 construct: 100 µl Citratplasma; from tissue; host or cells: citrate plasma
T1 sequence (P00488 39-732 limits assumed): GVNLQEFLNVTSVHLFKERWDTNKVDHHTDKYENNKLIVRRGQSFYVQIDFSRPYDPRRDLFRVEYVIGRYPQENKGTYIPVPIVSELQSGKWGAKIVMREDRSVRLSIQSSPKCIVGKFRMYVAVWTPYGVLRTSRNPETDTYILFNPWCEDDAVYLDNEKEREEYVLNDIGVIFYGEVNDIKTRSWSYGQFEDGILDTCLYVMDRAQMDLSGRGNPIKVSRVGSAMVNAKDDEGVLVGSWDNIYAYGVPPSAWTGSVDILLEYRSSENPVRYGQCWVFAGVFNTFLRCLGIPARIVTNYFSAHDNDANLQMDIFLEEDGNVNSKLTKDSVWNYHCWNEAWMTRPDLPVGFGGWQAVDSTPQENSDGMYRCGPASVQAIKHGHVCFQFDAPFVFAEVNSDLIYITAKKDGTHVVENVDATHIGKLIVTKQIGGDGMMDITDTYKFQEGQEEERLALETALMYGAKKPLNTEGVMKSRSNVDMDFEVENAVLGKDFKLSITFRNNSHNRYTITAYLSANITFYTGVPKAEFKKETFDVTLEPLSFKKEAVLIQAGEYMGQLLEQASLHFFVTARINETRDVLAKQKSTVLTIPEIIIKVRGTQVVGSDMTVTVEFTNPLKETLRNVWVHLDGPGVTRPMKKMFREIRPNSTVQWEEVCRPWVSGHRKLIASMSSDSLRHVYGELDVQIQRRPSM
Excerpt: (§1) Selektivität der Messungen verschiedener Transglutaminasen
1. Ansatz: Substratpeptid: Abz-Ala-Pro-Glu(CAD-DNP)-Gln-Glu-Ala (3), Transglutaminase: Faktor XIII

[1] = target: T2, gereinigte rekombinante humane Transglutaminase 2 (Homo sapiens, UniProt P21980); test: Selectivity test: fluorescence-based kinetic transglutaminase activity measurement (release of quencher from substrate peptide), Ansatz 2; assay type: biochemical; conditions: substrate peptide 50 µM; rhHis6TG2 0,25 µM; 6 % DMSO; Exc.: 310 nm Em.: 427 nm, 20 min
T2 construct: His6
T2 sequence (P21980 1-687): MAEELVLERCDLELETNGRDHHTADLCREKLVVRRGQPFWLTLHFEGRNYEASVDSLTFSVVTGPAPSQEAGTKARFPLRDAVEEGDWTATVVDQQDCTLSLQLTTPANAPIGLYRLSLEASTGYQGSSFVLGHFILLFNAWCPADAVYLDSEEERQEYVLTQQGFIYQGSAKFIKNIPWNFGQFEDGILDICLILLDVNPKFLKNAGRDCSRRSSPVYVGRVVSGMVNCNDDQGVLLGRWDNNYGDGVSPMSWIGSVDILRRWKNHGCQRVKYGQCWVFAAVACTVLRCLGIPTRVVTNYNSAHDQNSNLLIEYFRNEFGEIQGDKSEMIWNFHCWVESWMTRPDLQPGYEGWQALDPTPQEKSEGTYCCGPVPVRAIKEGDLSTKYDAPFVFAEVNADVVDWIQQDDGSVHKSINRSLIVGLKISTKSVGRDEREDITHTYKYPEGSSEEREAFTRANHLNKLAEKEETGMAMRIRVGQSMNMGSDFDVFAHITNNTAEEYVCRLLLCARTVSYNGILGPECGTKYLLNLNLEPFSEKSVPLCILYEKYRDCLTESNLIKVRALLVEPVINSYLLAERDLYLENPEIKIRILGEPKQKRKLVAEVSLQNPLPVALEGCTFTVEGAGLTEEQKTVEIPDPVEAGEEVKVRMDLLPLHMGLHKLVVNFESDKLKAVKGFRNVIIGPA
Excerpt: as §1
2. Ansatz: Abz-Asn-Glu(CAD-DNP)-Glu-Gln-Val-Ser-Pro-Leu-Thr-Leu-Leu-Lys (2) Transglutaminase: gereinigte rekombinante humane Transglutaminase 2

| Compound | Ergebnis (Anstieg der Fluoreszenz) (Faktor XIII) | Ergebnis (Anstieg der Fluoreszenz) [1] |
| --- | --- | --- |
| C[C@H](NC(=O)[C@H](CCC(=O)O)NC(=O)[C@H](CCC(N)=O)NC(=O)[C@H](CCC(=O)NCCCCCNc1ccc([N+](=O)[O-])cc1[N+](=O)[O-])NC(=O)[C@@H]1CCCN1C(=O)[C@H](C)NC(=O)c1ccccc1N)C(=O)O [Verbindung 3] (H-[2Abz]APE(X1)QEA-OH) | Ergebnis: kein Anstieg der Fluoreszenz | – |
| 2-Aminobenzoyl-L-asparaginyl-N^δ-[N-(2,4-dinitrophenyl)1-5-aminopentyl]-L-glutaminyl-L-glutamyl-L-glutaminyl-L-valinyl-L-serinyl-L-prolinyl-L-leucinyl-L-threoninyl-L-leucinyl-L-leucin-L-lysin [Verbindung 2] | – | kein Anstieg der Fluoreszenz |
